ChEMBL document CHEMBL4834400 (J Med Chem, 2021)

How the values were obtained:
[1] = Ratio of drug concentration in brain to plasma in Wistar Han rat at 100 mg/kg, po measured at 2 hrs by HPLC-MS/MS
[2] = Drug concentration in Wistar Han rat plasma at 100 mg/kg, po measured at 2 hrs by HPLC-MS/MS
[3] = Drug concentration in Wistar Han rat plasma at 100 mg/kg, po measured at 6 hrs by HPLC-MS/MS
[4] = Drug concentration in Wistar Han rat brain at 100 mg/kg, po measured at 2 hrs by HPLC-MS/MS
[5] = Drug concentration in Wistar Han rat brain at 100 mg/kg, po measured at 6 hrs by HPLC-MS/MS
[6] = Drug concentration in Wistar Han rat plasma at 100 mg/kg, po measured at 0.37 hrs by HPLC-MS/MS
[7] = Ratio of drug concentration in brain to plasma in Wistar Han rat at 100 mg/kg, po measured at 0.37 hrs by HPLC-MS/MS
[8] = Drug concentration in Wistar Han rat brain at 100 mg/kg, po measured at 0.37 hrs by HPLC-MS/MS
[9] = Ratio of drug concentration in brain to plasma in Wistar Han rat at 100 mg/kg, po measured at 6 hrs by HPLC-MS/MS
in vivo [10] = conditions: Sprague-Dawley, rat, po, 10 mg/kg
[11] = Half life in Sprague-Dawley rat at 10 mg/kg, po; conditions: in vivo
in vivo [12] = conditions: Sprague-Dawley, rat, plasma, po, 10 mg/kg
[13] = Volume of distribution at steady state in Sprague-Dawley rat at 5 mg/kg, iv; conditions: in vivo
[14] = Half life in Sprague-Dawley rat at 5 mg/kg, iv; conditions: in vivo
[15] = Drug concentration in Sprague-Dawley rat at 5 mg/kg, iv measured at 0 hrs; conditions: in vivo
in vivo [16] = conditions: Sprague-Dawley, rat, plasma, po, 10 mg/kg; remark: listed apart in the source
[17] = Clearance in Sprague-Dawley rat at 5 mg/kg, iv; conditions: in vivo

| SMILES | Kp at 2 h [1] | concentration at 2 h [2] | concentration at 6 h [3] | concentration at 2 h [4] | concentration at 6 h [5] | concentration at […] [6] | Kp at […] [7] | concentration at […] [8] | Kp at 6 h [9] | bioavailability (in vivo [10]) | half-life [11] | Cmax at 24 h (in vivo [12]) | Vd [13] | half-life [14] | concentration at 0 h [15] | AUC(0-inf) (in vivo [16]) | clearance [17] |
| --- | --- | --- | --- | --- | --- | --- | --- | --- | --- | --- | --- | --- | --- | --- | --- | --- | --- |
| COc1ccc2cccc(CCNC(C)=O)c2c1 [AGOMELATINE] | 2.73 | 1230 ng/mL | 450 ng/mL | 3200 ng/g | 1210 ng/g | 4200 ng/mL | 3.19 | 13800 ng/g | 2.73 | – | – | – | – | – | – | – | – |
| COc1ccc2[nH]cc(CCNC(C)=O)c2c1 [MELATONIN] | – | – | – | – | – | – | – | – | – | 53.5% | 31.8 min | 2790 ng/mL | 1.05 L/kg | 19.8 min | 935 ng/mL | 2490 ng·h/mL | 35.2 mL/min/kg |
| CCC(=O)NCC[C@@H]1CCc2ccc3c(c21)CCO3 [RAMELTEON] | 0.86 | 3450 ng/mL | 1150 ng/mL | 3030 ng/g | 1190 ng/g | 3160 ng/mL | 0.91 | 2850 ng/g | 1.02 | – | – | – | – | – | – | – | – |
